Values of other authors in patent US20100069490A1 (priority 2006, published 2010).
Counter-ions that a name gives are not always drawn.

Experiments:
[1] = tested on: lipase; conditions: pure or in combination with synergisms
[2] = tested on: bacteria
[3] = in vivo and in vitro
[4] = tested on: rhino mouse model; conditions: applied locally
[5] = tested on: human polymorphonuclear leukocytes

CCOC(=O)CC(O)(CC(=O)OCC)C(=O)OCC [Triethyl citrate, Triethyl-2-hydroxypropan-1,2,3-tricarboxylate]
inhibition of hydrolysis of the triglycerides [1]: able to inhibit hydrolysis of the triglycerides
antibacterial activity [2]: has antibacterial activity

COc1ccc(-c2ccc3cc(C(=O)O)ccc3c2)cc1C12CC3CC(CC(C3)C1)C2 [Adapalene, 6-[3-(1-adamantyl)-4-methoxypheny]-2-naphthanoic acid]
anti-inflammatory activity versus reference retinoids [3]: superior to the reference retinoids
comedolitic activity [4]: comedolitic
inhibition of chemiotaxic and chemiokinetic response [5]: inhibits the chemiotaxic and chemiokinetic response
